Results: PubChem BioAssay AID651849 (The Scripps Research Institute Molecular Screening Center, 2012)

These compounds were tested against Photoreceptor-specific nuclear receptor (Homo sapiens) (UniProt Q9Y5X4) (assay: agonist-induced NR2E3-NCOR dissociation – cell-based, luminescence, CHO-S two-hybrid, late stage, dose response (AID 651849)). Conditions: CHO-S Gal4-NCOR/VP16-NR2E3 two-hybrid, luciferase.
Chain of Photoreceptor-specific nuclear receptor (Homo sapiens) (Q9Y5X4 whole entry, looked up, the tested form may be a part): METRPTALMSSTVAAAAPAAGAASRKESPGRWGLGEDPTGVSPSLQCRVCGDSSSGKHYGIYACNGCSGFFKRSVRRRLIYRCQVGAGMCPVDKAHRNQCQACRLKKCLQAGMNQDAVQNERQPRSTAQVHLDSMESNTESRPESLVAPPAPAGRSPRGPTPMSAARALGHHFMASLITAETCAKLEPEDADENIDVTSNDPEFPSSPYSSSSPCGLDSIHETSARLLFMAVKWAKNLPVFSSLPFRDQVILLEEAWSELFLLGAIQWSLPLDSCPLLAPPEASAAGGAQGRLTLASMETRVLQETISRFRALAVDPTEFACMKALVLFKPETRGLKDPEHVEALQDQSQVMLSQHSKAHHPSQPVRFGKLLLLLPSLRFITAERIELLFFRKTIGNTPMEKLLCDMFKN

Point of comparison: NC(=O)c1nn(-c2ccccc2)nc1NC(=O)CSc1nnnn1-c1ccc(Cl)cc1, IC50 1570 nM. Against it:
- Cc1ccc(-c2nc(NC(=O)CSc3nnnn3-c3ccccc3)ns2)cc1 — 3.9-fold lower, 404 nM
- COc1ccc(OC)c(NC(=O)CSc2nnnn2-c2ccc3c(c2)OCO3)c1 — 5.2-fold lower, 301 nM
- O=C(CSc1nnnn1-c1ccc(O)cc1)Nc1ccc(N2CCOCC2)c(Cl)c1 — within 1.5-fold, 1250 nM
- COc1cccc(N2CCN(c3nc(-c4ccccc4C)cc(=O)[nH]3)CC2)c1 — 3.7-fold lower, 428 nM
- O=C(O)CC1(CC(=O)Nc2cc(C(F)(F)F)cc(C(F)(F)F)c2)CCCCC1 — 2.6-fold higher, 4020 nM
- COc1ccc(S(=O)(=O)N2CCCCC2)cc1NC(=S)Nc1cccc(Cl)c1C — within 1.5-fold, 1500 nM
- O=C(CSc1nnnn1-c1ccc2c(c1)OCCO2)Nc1nc2c(s1)CCCC2 — 2.3-fold lower, 682 nM
- COc1ccc(NC2c3ccccc3C(=O)N2Cc2ccccc2Cl)cc1OC (stereo unspecified) — 3.1-fold higher, 4840 nM
- Cc1ccnc(NC(=O)CSc2cc(=O)n(C)c3ccccc23)c1 — within 1.5-fold, 1430 nM
- COc1ccc2c(CC(=O)Nc3ncc(C)s3)coc2c1 — within 1.5-fold, 1920 nM
- Cc1cccc(OCCCC(=O)Nc2nc3ccccc3[nH]2)c1 — 3.4-fold higher, 5300 nM
- COc1cccc(NC(=O)CSc2nc3ncc(Br)cc3[nH]2)c1 — 2.3-fold higher, 3570 nM
- O=c1c(Cl)c(N2CCN(c3ccc(F)cc3)CC2)cnn1C12CC3CC(CC(C3)C1)C2 — 2.1-fold higher, 3340 nM
- O=c1cc(N2CCN(c3cccc(Cl)c3)CC2)[nH]c(=O)n1C1CCCCC1 — 22-fold lower, 72.7 nM
- Cc1onc(-c2ccccc2Cl)c1C(=O)Nc1nc2c(s1)CCCC2 — 2.6-fold lower, 597 nM
- Cc1ccc(NC(=O)CSc2nnnn2-c2ccc3c(c2)OCO3)cc1C — 2.8-fold lower, 566 nM
- COc1ccc(S(=O)(=O)N2CCCCC2)cc1NC(=S)Nc1ccccc1 — 1.7-fold higher, 2630 nM
- Cc1cnc(NC(=O)C2CC(=O)N(c3ccc4c(c3)OCCO4)C2)s1 (stereo unspecified) — 4.5-fold higher, 7060 nM
- Cc1cnc(NC(=O)CCCc2nc3ccccc3s2)s1 — 1.7-fold lower, 945 nM
- Cc1cc(C)cc(NC(=O)CCc2nc3sc4c(c3c(=O)[nH]2)CCCC4)c1 — 6.3-fold lower, 249 nM
- O=C(Nc1cccc(NC(=O)c2c(F)cccc2F)n1)c1c(F)cccc1F — 5.1-fold higher, 7990 nM
- COc1cc2nc(CN3CC=C(c4ccccc4)CC3)[nH]c(=O)c2cc1OC — 4-fold lower, 393 nM
- Cc1cnc(NC(=O)Cc2ccc(Br)cc2)s1 — within 1.5-fold, 2250 nM
- Cc1ccc(CN2CC(C(=O)Nc3ncc(C)s3)CC2=O)cc1 (stereo unspecified) — 3-fold lower, 516 nM
- Cc1cccc(C(=O)N[C@H](C(=O)Nc2ncc(C)s2)C(C)C)c1 — 4.8-fold lower, 324 nM
